# Earlier results in patent US7122568B1, “Use of low-dose PDT to inhibit restenosis” (QLT, Inc., priority 1999, dated 2006).
# Like-named read-outs stand apart in the source and are kept apart here.
# Legend:
# porcine model = conditions: 0.3 mg/kg injected four hours prior to endothelial denudation; external irradiation 20 J/cm2 of 652 nm
# [1] = tested on: rabbit arteries injured by endothelial denudation; conditions: systemic administration after injury, 120 or 240 J/cm2 irradiation 24 hours later
# [2] = tested on: normal rabbit carotid arteries; conditions: systemic administration 7 days after denudation, external irradiation two days later; five weeks after PDT
# [3] = tested on: normal rat carotid arteries; conditions: systemic administration, external irradiation; PDT on days 2 and 7 after denudation, read on day 14
compound,measurement,setting,value
"Oc1cccc(-c2c3nc(c(-c4cccc(O)c4)c4ccc([nH]4)c(-c4cccc(O)c4)c4nc(c(-c5cccc(O)c5)c5ccc2[nH]5)CC4)C=C3)c1 [m-THPC, metatetrahydroxyphenyl-chlorin]",effect on intimal area,porcine model,significant increase of intimal area
Photofrin™,effect on IH,[1],prevention of IH
same,effect on induced IH response (ratio of IH area to normalized area enclosed by the IEL),[2],effective in reducing the induced IH response
benzoporphyrin derivative monoacid ring A [BPD-MA],effect on IH,"rat carotid artery; 0.5 μg/ml local delivery, 50 and 100 J/cm2 of 690 nm (Stages I and II)",little effect on reducing IH
same,effect on IH,"rat carotid artery; 0.5 μg/ml local delivery, 100 J/cm2 of 690 nm (Stage II)",induction of significant IH
same,effect on IH,"rat carotid artery; 25 μg/ml local delivery, 50 J/cm2 of 690 nm (Stage III)",inhibit IH
same,photothrombosis,"rat carotid artery; 25 μg/ml local delivery, 100 J/cm2 of 690 nm (Stage IV)",induce photothrombosis
chloraluminum-sulfonated phthalocyanine [CASPc],effect on induced IH response,[3],effective in inhibiting the induced IH response
